# Measurements: article PMC8348200, “Selective Antifungal Activity and Fungal Biofilm Inhibition of Tryptophan Center Symmetrical Short Peptide” (International Journal of Molecular Sciences, 2021)
# Where two headings read alike, the source gives them in different places. Residues, ends and D or L forms follow the SMILES beside them. No end group written: not given here.
# Tests used:
# E. coli 25922 = assay: microbe, parasite or virus in culture; assay type: cell-based, Escherichia coli; conditions: 25922, 24 h; read-out: MICs, E. coli 25922
# Method: (§1) The peptide antimicrobial activity was determined according to the Clinical and Laboratory Standards Institute method, with modifications. Bacteria concentration was measured by ultraviolet spectrophotometer, and fungi concentration was confirmed by McMillan’s turbidimetric method, which compared the fungi solution with the standard McFarland tube in front of the horizontal line on the paper with the naked eye. Because the light has different refract in different liquids. The standard solution is composed of sulfuric acid and barium chloride, which is equivalent to 1*10^8 CFU fungi. After cultivation, the growth of fungi and bacteria was measured by TECAN automatic enzyme label instrument. Briefly, bacterial cells were cultured in MHB until logarithmic phase, yeast colonies cultured in Yeast Peptone Dextrose Agar (YPDA) were picked and diluted in RPMI 1640 growth medium buffered with morpholine propane sulfonic acid (MOPS), and then 50 μL of bacterial or fungi cell solution (0.5–1 × 10^4 CFU/mL) was added to each well of sterile 96-well plates. Each well contained 50 μL of AMPs dissolved in BSA; the final concentrations of the peptides ranged from 0.5 to 128 μM. The lowest concentration of peptide with no microbial growth being observed were measured after incubation at 37 °C for 24 h for bacteria or at 28 °C for 48 h for fungi. Broth with microbial cells and un-inoculated broth were used as positive control and negative controls, respectively.
# E. coli UB1005 = assay: microbe, parasite or virus in culture; assay type: cell-based, Escherichia coli; conditions: UB1005, 24 h; read-out: MICs, E. coli UB1005
# Method: as §1
# S. aureus 25923 = assay: microbe, parasite or virus in culture; assay type: cell-based, Staphylococcus aureus; conditions: 25923, 24 h; read-out: MICs, S. aureus 25923
# Method: as §1
# S. aureus 29213 = assay: microbe, parasite or virus in culture; assay type: cell-based, Staphylococcus aureus; conditions: 29213, 24 h; read-out: MICs, S. aureus 29213
# Method: as §1
# L. rhamnosus 1.0385 = assay: microbe, parasite or virus in culture; assay type: cell-based, Lactobacillus rhamnosus; conditions: 24 h; read-out: MICs, L. rhamnosus 1.0385
# Method: as §1
# L. rhamnosus 1.0911 = assay: microbe, parasite or virus in culture; assay type: cell-based, Lactobacillus rhamnosus; conditions: 24 h; read-out: MICs, L. rhamnosus 1.0911
# Method: as §1
# [1] = tested on: C. parapsilosis cgmcc 2.3989; assay: microbe, parasite or virus in culture; assay type: cell-based; conditions: cgmcc 2.3989, 48 h; read-out: MICs, C. parapsilosis cgmcc 2.3989
# Method: as §1
# [2] = tested on: C. tropicalis cgmcc 2.1975; assay: microbe, parasite or virus in culture; assay type: cell-based; conditions: cgmcc 2.1975, 48 h; read-out: MICs, C. tropicalis cgmcc 2.1975
# Method: as §1
# L. plantarum 7469 = assay: microbe, parasite or virus in culture; assay type: cell-based; conditions: 24 h; read-out: MICs, L. plantarum 7469
# Method: as §1
# S. thermophilus YM-C = assay: microbe, parasite or virus in culture; assay type: cell-based, Streptococcus thermophiles; conditions: 24 h; read-out: MICs, S. thermophilus YM-C
# Method: as §1
# [3] = tested on: C. albicans Isolated from Alveolar Fluid; assay: microbe, parasite or virus in culture; assay type: cell-based, Candida albicans; conditions: RPMI 1640 buffered with MOPS, 28 °C 48 h, 0.5-128 μM; read-out: MICs, C. albicans Isolated from Alveolar Fluid
# Method: as §1
# C. albicans SP3902 = assay: microbe, parasite or virus in culture; assay type: cell-based, Candida albicans; conditions: clinical isolate; RPMI 1640 buffered with MOPS, 28 °C 48 h, 0.5-128 μM; read-out: MICs, C. albicans SP3902
# Method: as §1
# C. albicans SP3903 = assay: microbe, parasite or virus in culture; assay type: cell-based, Candida albicans; conditions: clinical isolate; RPMI 1640 buffered with MOPS, 28 °C 48 h, 0.5-128 μM; read-out: MICs, C. albicans SP3903
# Method: as §1
# C. albicans SP3937 = assay: microbe, parasite or virus in culture; assay type: cell-based, Candida albicans; conditions: clinical isolate; RPMI 1640 buffered with MOPS, 28 °C 48 h, 0.5-128 μM; read-out: MICs, C. albicans SP3937
# Method: as §1
# C. albicans cgmcc 2.2086 = assay: microbe, parasite or virus in culture; assay type: cell-based, Candida albicans; conditions: cgmcc 2.2086, 48 h; read-out: MICs, C. albicans cgmcc 2.2086
# Method: as §1
# [4] = tested on: Fluconazole-resistant C. albicans 56214; assay: microbe, parasite or virus in culture; conditions: fluconazole-resistant strain; RPMI 1640 buffered with MOPS, 28 °C 48 h, 0.5-128 μM
# Method: as §1, with “Bacteria concentration was measured by ultraviolet spectrophotometer, and fungi concentration was confirmed by McMillan’s turbidimetric method, which compared the fungi solution with the standard McFarland tube in front of the horizontal line on the paper with the naked eye.” left out, “The lowest concentration of peptide with no microbial growth being observed were measured after incubation at 37 °C for 24 h for bacteria or at 28 °C for 48 h for fungi.” left out
# C.albicans cgmcc 2.2086 = assay: microbe, parasite or virus in culture; assay type: cell-based, Candida albicans; conditions: cgmcc 2.2086, 24 h
# Method: as §1, with “The lowest concentration of peptide with no microbial growth being observed were measured after incubation at 37 °C for 24 h for bacteria or at 28 °C for 48 h for fungi.” left out
# The salt and acid sensitivities of the peptides were measured using with modified method to test MIC values; tested peptides were incubated in the presence of different final concentrations of physiological salts. The subsequent steps were consistent with the MIC determination protocol.
# human red blood cells = assay: Hemolysis assay; assay type: cell-based; conditions: at the highest tested concentration; fresh human erythrocytes
# Method: The cytotoxicity of the peptides was determined with three cell types, including the Pig kidney cells, HEK 293T cells and fresh, healthy human red blood cells (donated by Zhihua Wang) via the MTT dye reduction assay and hemolysis assay.
Compound,MIC (E. coli 25922) [µM],MIC (E. coli UB1005) [µM],MIC (S. aureus 25923) [µM],MIC (S. aureus 29213) [µM],MIC (L. rhamnosus 1.0385) [µM],MIC (L. rhamnosus 1.0911) [µM],MIC [1] [µM],MIC [2] [µM],MIC (L. plantarum 7469) [µM],MIC (S. thermophilus YM-C) [µM],MIC [3] [µM],MIC (C. albicans SP3902) [µM],MIC (C. albicans SP3903) [µM],MIC (C. albicans SP3937) [µM],MIC (C. albicans cgmcc 2.2086) [µM],"MICs, C. albicans 56214 [4] [µM]",other results
CC(C)C[C@H](NC(=O)[C@H](CS)NC(=O)[C@H](CC(C)C)NC(=O)[C@H](Cc1c[nH]c2ccccc12)NC(=O)[C@H](CC(C)C)NC(=O)[C@H](CS)NC(=O)[C@H](CC(C)C)NC(=O)[C@H](CCCNC(=N)N)NC(=O)[C@@H](N)CCCNC(=N)N)C(=O)N[C@@H](CCCNC(=N)N)C(=O)N[C@@H](CCCNC(=N)N)C(N)=O [Peptide P3] (H-RRLCLWLCLRR-NH2; N-terminus assumed),4,2,8,8,>128,128,16,4,128,>128,16,16,16,16,8,16,
RRISIWISIRR-NH2 [Peptide P17],128,16,128,128,8,32,1,1,>128,>128,8,4,2,4,4,4,
RRFSFWFSFRR-NH2 [Peptide P19],128,128,>128,128,>128,>128,2,2,>128,>128,4,4,2,4,2,4,"MIC (C.albicans cgmcc 2.2086; read-out: MIC in acid environment, pH = 6): 4 µM; MIC (C.albicans cgmcc 2.2086; read-out: MIC in the presence of FeCl3): 4 µM; MIC (C.albicans cgmcc 2.2086; read-out: MIC in the presence of KCl): 4 µM; MIC (C.albicans cgmcc 2.2086; read-out: MIC in the presence of MgCl2): 4 µM; MIC (C.albicans cgmcc 2.2086; read-out: MIC in the presence of NH4Cl): 4 µM; MIC (C.albicans cgmcc 2.2086; read-out: MIC in the presence of NaCl): 32 µM; MIC (C.albicans cgmcc 2.2086; read-out: MIC in the presence of ZnCl2): 4 µM; MIC (C.albicans cgmcc 2.2086; read-out: MIC, Control): 2 µM; hemolysis (human red blood cells): less than 5%"
RRLSLWLSLRR-NH2 [Peptide P2],4,2,16,4,8,8,8,2,128,>128,8,16,16,8,4,8,
RRLALWLALRR-NH2 [Peptide P1],4,2,8,8,8,64,8,2,>128,128,8,32,16,16,8,16,
